From patent US20070232527A1, “Medicaments and methods combining a HCV protease inhibitor and an AKR competitor” (priority 2005, published 2007)

Tests used:
[1] = system: cytosolic enzymes that convert Formula Ia to Formula Ia′; assay: in vitro; settings: human
Experimental: (§3) All incubations contained 3 mM magnesium chloride and NADPH-generating system in 0.5 mL of 50 mM potassium phosphate buffer, pH 7.4. Prior to the addition of drug, incubation mixtures were preincubated for 2 min at 37° C. […] The incubation mixtures were vortexed and centrifuged (˜10,000 g) at 4° C. for 10 min; supernatants were analyzed by HPLC coupled with radiometric detector. Heat activated S9 cofactor or mitochondria were used as control. For LC-MS analysis, supernatants were concentrated in SpeedVac for 3 hrs. Incubation volumes were 0.5 mL and the final concentration of the organic solvents in the incubation system was less than 1% (v/v).
(§4) The mobile phase consisted of 10 mM ammonium acetate adjusted to pH 7.0 with 1% ammonium hydroxide (A) and 100% methanol (B).

[2] = system: cytosolic enzymes that convert Formula Ia to Formula Ia′; assay: Inhibition of metabolism of 14C-Formula Ia to Formula Ia′ in human liver cytosol; settings: human; for inhibition at 120 min: pH 7.4
Experimental: as §3, §4

[3] = In vivo inhibition study of Formula Ia with AKR competitor diflunisal, plasma PK; settings: cynomolgus monkeys plasma; as a function of diflunisal dose 0, 62.5, 125, 250 mg
Experimental: An in vivo study was conducted in cynomolgus monkeys where 200 mg Formula Ia and 0 (control), 62.5, 125, or 250 mg diflunisal (Dolobid) was administered as illustrated below. All six monkeys were first dosed with Formula Ia with blood samples collected over a 12 hr period for plasma pharmacokinetics (PK) of Formula Ia prior to administration of diflunisal (dose-escalation). Four doses of diflunisal were subsequently administered every 12 hr with Formula Ia administered at each 4th diflunisal dose after which blood samples were collected for PK assessment of Formula Ia. The following chart summarizes the timing of Formula Ia and diflunisal administration.

AKR1C3 = biological target: T1, AKR1C3 (Homo sapiens, UniProt P42330); assay: Incubation with S9 fraction of recombinant human AKR1C3; type: in vitro ADME; design: made in house; settings: 20 μM 14C-radiolabeled compound; S9 2.5 mg protein/mL; NADPH
T1 sequence (P42330 1-323): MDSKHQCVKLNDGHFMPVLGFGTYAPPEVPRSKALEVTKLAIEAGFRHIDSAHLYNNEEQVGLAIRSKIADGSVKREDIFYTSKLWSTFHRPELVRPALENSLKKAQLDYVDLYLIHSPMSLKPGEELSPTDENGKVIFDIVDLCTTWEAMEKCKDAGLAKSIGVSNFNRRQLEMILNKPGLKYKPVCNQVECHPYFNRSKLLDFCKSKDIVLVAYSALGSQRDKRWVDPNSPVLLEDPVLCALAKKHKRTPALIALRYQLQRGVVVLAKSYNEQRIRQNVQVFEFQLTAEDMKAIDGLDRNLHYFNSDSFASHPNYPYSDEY
Experimental: (§1) Recombinant human AKRs (AKR1C2, AKR1C3 and AKR1C4) were grown, sonicated and centrifuged at ˜10,000 g to obtain S9 fractions. Incubations of ^14C-radiolabeled compound of Formula Ia, ^14C-radiolabeled compound of Formula Ib and ^14C-radiolabeled compound of Formula Ic (all at 20 μM) with S9-fractions from three recombinant human AKRs (2.5 mg protein/mL) were conducted as described above. [drawing 161]
(§2) The samples were analyzed by HPLC-coupled with radiometric detector and confirmed by LC-MS.

AKR1C2 = biological target: T2, AKR1C2 (Homo sapiens, UniProt P52895); assay: Incubation with S9 fraction of recombinant human AKR1C2; type: in vitro ADME; design: made in house; settings: 20 μM 14C-radiolabeled compound; S9 2.5 mg protein/mL; NADPH
T2 sequence (P52895 1-323): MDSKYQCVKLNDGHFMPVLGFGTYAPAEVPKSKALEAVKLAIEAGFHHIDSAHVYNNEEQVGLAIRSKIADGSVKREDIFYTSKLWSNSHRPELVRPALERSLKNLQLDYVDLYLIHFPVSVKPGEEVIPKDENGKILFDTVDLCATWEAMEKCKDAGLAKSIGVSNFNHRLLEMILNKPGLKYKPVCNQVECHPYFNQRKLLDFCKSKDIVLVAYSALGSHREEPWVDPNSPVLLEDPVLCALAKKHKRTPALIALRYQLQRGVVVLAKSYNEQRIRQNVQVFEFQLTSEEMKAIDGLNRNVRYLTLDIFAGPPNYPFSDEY
Experimental: as §1, §2

[4] = system: cytosolic enzymes that convert Formula Ia to Formula Ia′; assay: Inhibition of metabolism of 14C-Formula Ia to Formula Ia′ in human liver S9; type: in vitro ADME; settings: human, pH 7.4
[5] = pH 7.4, % Inhibition on Metabolite Formation of Compound Formula Ia
[6] = pH 7.4, % of Inhibition on Metabolite Formation of Compound Formula Ia
[7] = pH 7.4, inhibited formation of the compound of Formula Ia′

Oc1ncnc2[nH]ncc12 [Allopurinol]
inhibition at 2 h, 100 µM [1, 5]: 2%
inhibited formation of the compound of Formula Ia′ (human liver cytosol): no inhibition

CC(C)=CCC/C(C)=C/COc1c2ccoc2cc2oc(=O)ccc12 [Bergamottin]
inhibition at 2 h, 10 µM [1, 6]: 10%

Cc1ccc(-c2cc(C(F)(F)F)nn2-c2ccc(S(N)(=O)=O)cc2)cc1 [Celecoxib]
inhibition at 120 min, 2 μM [1, 5]: 8.42%
inhibition at 120 min, 10 μM [1, 5]: 9.18%
inhibition at 120 min, 50 μM [1, 5]: 20.5%
inhibition at 2 h, 50 µM [1, 6]: 20.5%

O=C(O)Cc1ccccc1Nc1c(Cl)cccc1Cl [Diclofenac]
inhibition at 2 h, 7 µM [1, 6]: 57.3%

CCc1cccc2c3c([nH]c12)C(CC)(CC(=O)O)OCC3 (stereo not shown) [Etodolac]
inhibition at 2 h, 100 µM [1, 6]: 3.74%

CC(C(=O)O)c1cccc(Oc2ccccc2)c1 (stereo not shown) [Fenoprofen]
inhibition at 2 h, 80 µM [1, 6]: 14.2%

O=C(O)c1ccccc1Nc1cccc(C(F)(F)F)c1 [Flufenamic acid, N-(3-trifluoromethylphenyl)anthranilic acid]
inhibition at 2 h, 100 µM [1, 5]: 80.3%
inhibition at 120 min [1, 7]: 80.3%

CN1C(=O)CN=C(c2ccccc2F)c2cc([N+](=O)[O-])ccc21 [Flunitrazepam]
inhibition at 120 min [2]: 51%

CC(C(=O)O)c1ccc(-c2ccccc2)c(F)c1 (stereo not shown) [Flurbirofen]
inhibition at 2 h, 50 µM [1, 6]: 31.6%

CC(C)(C)NC(=O)N[C@H](C(=O)N1C[C@H]2[C@@H]([C@H]1C(=O)N[C@H](CC1CCC1)C(=O)C(N)=O)C2(C)C)C(C)(C)C [Formula Ib]
AUC ratio (Formula Ia′ to AUC for the compound) [3]: decline
metabolism by recombinant AKR1C3 (AKR1C3): preferentially metabolized

CC(C)(C)NC(=O)N[C@H](C(=O)N1C[C@H]2[C@@H]([C@H]1C(=O)N[C@@H](CC1CCC1)C(=O)C(N)=O)C2(C)C)C(C)(C)C [Formula Ic, (1R,2S,5S)—N-[(1S)-3-amino-1-(cyclobutylmethyl)-2,3-dioxopropyl]-3-[(2S)-2-[[[(1,1-dimethylethyl)amino]carbonyl]amino]-3,3-dimethyl-1-oxobutyl]-6,6-dimethyl-3-azabicyclo[3.1.0]hexane-2-carboxamide]
metabolism by recombinant AKR1C2 (AKR1C2): preferentially metabolized
AUC ratio (Formula Ia′ to AUC for the compound) [3]: decline

Cc1ccc(C)c(OCCCC(C)(C)C(=O)O)c1 [Gemfibrozil, 5-(2,5-dimethylphenoxy)-2,2-dimethylpentanoic acid]
inhibition at 120 min, 100 µM [1, 5]: 27.4%
inhibition at 120 min, 100 μM [1, 5]: 27.4%

CC(C)Cc1ccc(C(C)C(=O)O)cc1 (stereo not shown) [Ibuprofen]
inhibition at 120 min, 50 µM [1, 5]: 21.9%
inhibition at 120 min, 50 μM [1, 5]: 31.3%
inhibition at 120 min, 100 µM [1, 5]: 31.4%
inhibition at 120 min, 100 μM [1, 5]: 33.4%
inhibition at 120 min, 200 µM [1, 5]: 40.7%
inhibition at 120 min, 200 μM [1, 5]: 43.3%
inhibition at 120 min, 500 µM [1, 5]: 56.6%
inhibition at 120 min, 1000 µM [1, 5]: 70%
inhibition at 120 min, 1000 μM [1, 5]: 70%
inhibition at 2 h, 200 µM [1, 6]: 43.3%
inhibition at 120 min ([1]; pH 7.4, inhibited metabolism of 14C-radiolabeled compound of Formula Ia): 70%

COc1ccc2c(c1)c(CC(=O)O)c(C)n2C(=O)c1ccc(Cl)cc1 [Indomethacin]
inhibition at 120 min, 100 µM [1, 5]: 19%
inhibition at 120 min, 100 μM [1, 5]: 19%
inhibition at 2 h, 100 µM [1, 6]: 19%

O=C(c1ccccc1)c1ccc2n1CCC2C(=O)O (stereo not shown) [Ketorolac]
inhibition at 2 h, 4 µM [1, 6]: 0%

Cc1cccc(Nc2ccccc2C(=O)O)c1C [Mefenamic acid]
inhibition at 2 h, 1 µM [1, 6]: 14.6%
inhibition at 2 h, 10 µM [1, 6]: 51.1%

CC1=CC(=O)c2ccccc2C1=O [Menadione]
inhibition at 2 h, 100 µM [1, 5]: 29.7%
inhibition at 120 min, 100 µM [1, 7]: 30%
inhibition at 120 min, 100 µM [4]: 18%

Cc1ncc2n1-c1ccc(Cl)cc1C(c1ccccc1F)=NC2 [Midazolam]
inhibition at 120 min [2]: 37%

COc1ccc2cc(CCC(C)=O)ccc2c1 [Nabumetone]
inhibition at 2 h, 200 µM [1, 6]: 42.4%

O=C1C[C@@H](c2ccc(O)cc2)Oc2cc(O)cc(O)c21 [Naringenin]
inhibition at 2 h, 500 µM ([2]; pooled human liver cytosol, pH 7.4, probe 14C-radiolabeled compound of Formula Ia (20 μM), % of Inhibition on Metabolite Formation of Compound Formula Ia, Table 5, human liver cytosol, 2 hr incubation, 500 μM): 86.7%

O=C(O)CCc1nc(-c2ccccc2)c(-c2ccccc2)o1 [Oxaprozin]
inhibition at 2 h, 500 µM [1, 6]: 76.1%

C#CCN(C)Cc1ccccc1 [Pargyline]
inhibition at 2 h, 1 µM [1, 5]: 0%
inhibited formation of the compound of Formula Ia′ (human liver cytosol): no inhibition

O=C1OC(c2ccc(O)cc2)(c2ccc(O)cc2)c2ccccc21 [Phenolphthalein]
inhibition at 120 min, 100 μM [1, 5]: 86.1%
inhibition at 120 min [1, 7]: 86.1%

O=c1c(O)c(-c2ccc(O)c(O)c2)oc2cc(O)cc(O)c12 [Quercetin]
inhibition at 2 h, 100 µM [1, 5]: 33.4%
inhibition at 120 min, 100 µM [1, 7]: 33.4%
inhibition at 120 min, 100 µM [4]: 9.3%

NC(=O)c1ncn([C@@H]2O[C@H](CO)[C@@H](O)[C@H]2O)n1 [Ribavirin]
inhibition at 120 min, 10 μM [1, 5]: 1.76%
inhibition at 120 min, 30 μM [1, 5]: 0%

CC1=C(CC(=O)O)c2cc(F)ccc2/C1=C\c1ccc([S+](C)[O-])cc1 (stereo not shown) [Sulindac]
inhibition at 2 h, 30 µM ([2]; pooled human liver cytosol, pH 7.4, probe 14C-radiolabeled compound of Formula Ia (20 μM), % of Inhibition on Metabolite Formation of Compound Formula Ia, Table 5, human liver cytosol, 2 hr incubation, 30 μM): 19%

Cc1ccc(C(=O)c2ccc(CC(=O)O)n2C)cc1 [Tolmetin]
inhibition at 2 h, 125 µM [1, 6]: 2.14%
